Measured values published in US9790230B2 (Hoffmann-La Roche Inc., priority 2015, dated 2017).

Key:
rat TAAR1 = rat TAAR1 (Rattus norvegicus (Rat), UniProt Q923Y9); test: Radioligand binding assay on rat TAAR1;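 further: membranes from HEK293 cells stably transfected with rat TAAR1, tritiated TAAR1 radioligand, 1 h incubation at 4 °C, nonspecific binding determined with excess unlabeled ligand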
Procedure: (§1) Membrane Preparation and Radioligand Binding.
HEK-293 cells stably expressing rat TAAR1 were maintained at 37° C. and 5% CO2 in DMEM high glucose medium, containing fetal calf serum (10%, heat inactivated for 30 min at 56° C.), penicillin/streptomycin (1%), and 375 μg/ml geneticin (Gibco). Cells were released from culture flasks using trypsin/EDTA, harvested, washed twice with ice-cold PBS (without Ca^2+ and Mg^2+), pelleted at 1'000 rpm for 5 min at 4° C., frozen and stored at −80° C. Frozen pellets were suspended in 20 ml HEPES-NaOH (20 mM, pH 7.4) containing 10 mM EDTA and homogenized with a Polytron (PT 6000, Kinematica) at 14′000 rpm for 20 s. The homogenate was centrifuged at 48'000×g for 30 min at 4° C. Subsequently, the supernatant was removed and discarded, and the pellet resuspended in 20 ml HEPES-NaOH (20 mM, pH 7.4) containing 0.1 mM EDTA using the Polytron (20 s at 14'000 rpm). This procedure was repeated and the final pellet resuspended in HEPES-NaOH containing 0.1 mM EDTA and homogenized using the Polytron. Typically, aliquots of 2 ml membrane portions were stored at −80° C. With each new membrane batch the dissociation constant (Kd) was determined via a saturation curve. […] Nonspecific binding was defined as the amount of 3 [H]—(S)-4-[(ethyl-phenyl-amino)-methyl]-4,5-dihydro-oxazol-2-ylamine bound in the presence of 10 M unlabeled ligand. All compounds were tested at a broad range of concentrations (10 pM to 10 μM) in duplicates. […] The 96 deep well plates were incubated for 1 hr at 4° C. Incubations were terminated by rapid filtration through Unifilter-96 plates (Packard Instrument Company) and glass filters GF/C (Perkin Elmer) presoaked for 1 hr in polyethylenimine (0.3%) and washed 3 times with 1 ml of cold binding buffer. After addition of 45 μl of Microscint 40 (PerkinElmer) the Unifilter-96 plate was sealed and after 1 hr the radioactivity counted using a TopCount Microplate Scintillation Counter (Packard Instrument Company).

mouse TAAR1 = mouse TAAR1 (Mus musculus (Mouse), UniProt Q923Y8); test: Radioligand binding assay on mouse TAAR1
mouse TAAR1, sequence (Q923Y8 whole entry): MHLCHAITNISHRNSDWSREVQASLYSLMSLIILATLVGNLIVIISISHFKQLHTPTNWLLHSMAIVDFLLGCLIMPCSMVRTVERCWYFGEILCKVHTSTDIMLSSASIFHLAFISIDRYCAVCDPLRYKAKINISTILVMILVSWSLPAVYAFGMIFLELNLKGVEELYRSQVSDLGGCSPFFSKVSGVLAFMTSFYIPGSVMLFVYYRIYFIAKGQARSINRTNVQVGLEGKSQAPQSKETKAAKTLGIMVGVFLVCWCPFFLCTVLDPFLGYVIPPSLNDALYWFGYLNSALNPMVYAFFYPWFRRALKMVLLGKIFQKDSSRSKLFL
Procedure: Radioligand Binding Assay on Mouse TAAR1
as §1
HEK-293 cells stably expressing mouse TAAR1 were maintained at 37° C. and 5% CO2 in DMEM high glucose medium, containing fetal calf serum (10%, heat inactivated for 30 min at 56° C.), penicillin/streptomycin (1%), and 375 μg/ml geneticin (Gibco). Cells were released from culture flasks using trypsin/EDTA, harvested, washed twice with ice-cold PBS (without Ca^2+ and Mg^2+), pelleted at 1'000 rpm for 5 min at 4° C., frozen and stored at −80° C. Frozen pellets were suspended in 20 ml HEPES-NaOH (20 mM, pH 7.4) containing 10 mM EDTA and homogenized with a Polytron (PT 6000, Kinematica) at 14'000 rpm for 20 s. The homogenate was centrifuged at 48'000×g for 30 min at 4° C. Subsequently, the supernatant was removed and discarded, and the pellet resuspended in 20 ml HEPES-NaOH (20 mM, pH 7.4) containing 0.1 mM EDTA using the Polytron (20 s at 14'000 rpm). This procedure was repeated and the final pellet resuspended in HEPES-NaOH containing 0.1 mM EDTA and homogenized using the Polytron. Typically, aliquots of 2 ml membrane portions were stored at −80° C. With each new membrane batch the dissociation constant (Kd) was determined via a saturation curve. The TAAR1 radioligand ^3[H]—(S)-4-[(ethyl-phenyl-amino)-methyl]-4,5-dihydro-oxazol-2-ylamine (described in WO 2008/098857) was used at a concentration equal to the calculated Kd value, that was usually around 0.7 nM, resulting in the binding of approximately 0.5% of the radioligand and a specific binding representing approximately 70% of the total binding. Nonspecific binding was defined as the amount of ^3[H]—(S)-4-[(ethyl-phenyl-amino)-methyl]-4,5-dihydro-oxazol-2-ylamine bound in the presence of 10 M unlabeled ligand. All compounds were tested at a broad range of concentrations (10 pM to 10 μM) in duplicates. […] The 96 deep well plates were incubated for 1 hr at 4° C. Incubations were terminated by rapid filtration through Unifilter-96 plates (Packard Instrument Company) and glass filters GF/C (Perkin Elmer) presoaked for 1 hr in polyethylenimine (0.3%) and washed 3 times with 1 ml of cold binding buffer. After addition of 45 μl of Microscint 40 (PerkinElmer) the Unifilter-96 plate was sealed and after 1 hr the radioactivity counted using a TopCount Microplate Scintillation Counter (Packard Instrument Company).

rat TAAR1, sequence (Q923Y9 whole entry): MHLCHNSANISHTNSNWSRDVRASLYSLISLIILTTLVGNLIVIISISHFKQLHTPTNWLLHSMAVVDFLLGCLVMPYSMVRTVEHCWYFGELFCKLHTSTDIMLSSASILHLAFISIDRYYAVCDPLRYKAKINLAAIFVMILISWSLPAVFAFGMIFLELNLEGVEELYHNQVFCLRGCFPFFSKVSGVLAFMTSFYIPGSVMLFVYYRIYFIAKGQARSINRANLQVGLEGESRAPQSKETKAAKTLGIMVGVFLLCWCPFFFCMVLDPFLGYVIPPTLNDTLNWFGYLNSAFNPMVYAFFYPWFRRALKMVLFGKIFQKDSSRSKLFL

SMILES	Ki (rat TAAR1)	Ki (mouse TAAR1)
O=C(Nc1cccc([C@@H]2O[C@H]3CN[C@@H]2C3)c1)c1cccc(Cl)c1 [Example 1, 3-Chloro-N-[3-[(1R,3S,4R)-2-oxa-5-azabicyclo[2.2.1]heptan-3-yl]phenyl]benzamide]	132 nM	2990 nM
O=C(Nc1cccc([C@@H]2O[C@H]3CN[C@@H]2C3)c1)c1ccc(Cl)cc1 [Example 2, 4-Chloro-N-[3-[(1R,3S,4R)-2-oxa-5-azabicyclo[2.2.1]heptan-3-yl]phenyl]benzamide]	79.4 nM	2510 nM
O=C(Nc1ccc(C(F)(F)F)cc1)Nc1cccc([C@@H]2O[C@H]3CN[C@@H]2C3)c1 [Example 3, 1-[3-[(1R,3S,4R)-2-Oxa-5-azabicyclo[2.2.1]heptan-3-yl]phenyl]-3-[4-(trifluoromethyl)phenyl]urea]	2.9 nM	986 nM
O=C(Nc1ccc(Cl)cc1)Nc1cccc([C@@H]2O[C@H]3CN[C@@H]2C3)c1 [Example 4, 1-(4-Chlorophenyl)-3-[3-[(1R,3S,4R)-2-oxa-5-azabicyclo[2.2.1]heptan-3-yl]phenyl]urea]	10.2 nM	1280 nM
O=C(Nc1cccc(Cl)c1)Nc1cccc([C@@H]2O[C@H]3CN[C@@H]2C3)c1 [Example 5, 1-(3-Chlorophenyl)-3-[3-[(1R,3S,4R)-2-oxa-5-azabicyclo[2.2.1]heptan-3-yl]phenyl]urea]	19.2 nM	1330 nM
c1ccc([C@@H]2O[C@H]3CN[C@@H]2C3)cc1 [Example 6, (1R,3S,4R)-3-Phenyl-2-oxa-5-azabicyclo[2.2.1]heptane]	814 nM	1540 nM
O=C(Nc1ccc([C@@H]2O[C@H]3CN[C@@H]2C3)cc1)c1ccc(Cl)cc1 [Example 7, 4-Chloro-N-[4-[(1R,3S,4R)-2-oxa-5-azabicyclo[2.2.1]heptan-3-yl]phenyl]benzamide]	106 nM	4.4 nM
O=C(Nc1ccc([C@H]2O[C@@H]3CN[C@H]2C3)cc1)c1cccc(Cl)c1 [Example 8, 3-Chloro-N-[4-[(1S,3R,4S)-2-oxa-5-azabicyclo[2.2.1]heptan-3-yl]phenyl]benzamide]	210 nM	4.6 nM
c1ccc([C@H]2O[C@@H]3CN[C@H]2C3)cc1 [Example 9, (1S,3R,4S)-3-Phenyl-2-oxa-5-azabicyclo[2.2.1]heptane]	369 nM	34.9 nM
O=C(Nc1ccc([C@@H]2O[C@H]3CN[C@@H]2C3)cc1)c1cccc(Cl)c1 [Example 10, 3-Chloro-N-[4-[(1R,3S,4R)-2-oxa-5-azabicyclo[2.2.1]heptan-3-yl]phenyl]benzamide]	55 nM	4.2 nM
FC(F)(F)c1ccc(Nc2ccc([C@@H]3O[C@H]4CN[C@@H]3C4)cc2)nc1 [Example 11, N-[4-[(1R,3S,4R)-2-Oxa-5-azabicyclo[2.2.1]heptan-3-yl]phenyl]-5-(trifluoromethyl)pyridin-2-amine]	15.3 nM	3.9 nM
O=C(Nc1ccc([C@@H]2O[C@H]3CN[C@@H]2C3)cc1)c1ccc(OCC2CC2)cc1 [Example 12, 4-(Cyclopropylmethoxy)-N-[4-[(1R,3S,4R)-2-oxa-5-azabicyclo[2.2.1]heptan-3-yl]phenyl]benzamide]	134 nM	6.7 nM
CCOc1ccc(C(=O)Nc2ccc([C@@H]3O[C@H]4CN[C@@H]3C4)cc2)cn1 [Example 13, 6-Ethoxy-N-[4-[(1R,3S,4R)-2-oxa-5-azabicyclo[2.2.1]heptan-3-yl]phenyl]pyridine-3-carboxamide]	346000 nM	6.3 nM
O=C(Nc1ccc([C@H]2O[C@@H]3CN[C@H]2C3)cc1)c1ccc(Cl)cc1 [Example 14, 4-Chloro-N-[4-[(1S,3R,4S)-2-oxa-5-azabicyclo[2.2.1]heptan-3-yl]phenyl]benzamide]	192 nM	5 nM
CCOc1ccc(C(=O)Nc2ccc([C@H]3O[C@@H]4CN[C@H]3C4)cc2)cn1 [Example 15, 6-Ethoxy-N-[4-[(1S,3R,4S)-2-oxa-5-azabicyclo[2.2.1]heptan-3-yl]phenyl]pyridine-3-carboxamide]	1900 nM	15.5 nM
O=C(Nc1ccc([C@H]2O[C@@H]3CN[C@H]2C3)cc1)c1ccc(OCC(F)(F)F)nc1 [Example 16, N-[4-[(1S,3R,4S)-2-Oxa-5-azabicyclo[2.2.1]heptan-3-yl]phenyl]-6-(2,2,2-trifluoroethoxy)pyridine-3-carboxamide]	142 nM	11.8 nM
CCOc1ccc(C(=O)Nc2ccc([C@H]3O[C@@H]4CN[C@H]3C4)cc2)cc1 [Example 17, 4-Ethoxy-N-[4-[(1S,3R,4S)-2-oxa-5-azabicyclo[2.2.1]heptan-3-yl]phenyl]benzamide]	693 nM	6.4 nM
O=C(Nc1ccc([C@H]2O[C@@H]3CN[C@H]2C3)cc1)c1cnc(C2CC2)nc1 [Example 18, 2-Cyclopropyl-N-[4-[(1S,3R,4S)-2-oxa-5-azabicyclo[2.2.1]heptan-3-yl]phenyl]pyrimidine-5-carboxamide]	2030 nM	38 nM

SMILES	Ki (rat TAAR1)	Ki (mouse TAAR1)
FC(F)(F)c1ccc(Nc2ccc([C@H]3O[C@@H]4CN[C@H]3C4)cc2)nc1 [Example 19, N-[4-[(1S,3R,4S)-2-Oxa-5-azabicyclo[2.2.1]heptan-3-yl]phenyl]-5-(trifluoromethyl)pyridin-2-amine]	64.1 nM	7.1 nM
Clc1ccc(Nc2ccc([C@H]3O[C@@H]4CN[C@H]3C4)cc2)nc1 [Example 20, 5-Chloro-N-[4-[(1S,3R,4S)-2-oxa-5-azabicyclo[2.2.1]heptan-3-yl]phenyl]pyridin-2-amine]	397 nM	4.1 nM
FC(F)(F)c1nccc(Nc2ccc([C@H]3O[C@@H]4CN[C@H]3C4)cc2)n1 [Example 21, N-[4-[(1S,3R,4S)-2-Oxa-5-azabicyclo[2.2.1]heptan-3-yl]phenyl]-2-(trifluoromethyl)pyrimidin-4-amine]	633 nM	19.7 nM
FC(F)(F)c1cnc(Nc2ccc([C@H]3O[C@@H]4CN[C@H]3C4)cc2)cn1 [Example 22, N-[4-[(1S,3R,4S)-2-Oxa-5-azabicyclo[2.2.1]heptan-3-yl]phenyl]-5-(trifluoromethyl)pyrazin-2-amine]	340 nM	7.6 nM
FC(F)(F)c1cnc(Nc2ccc([C@H]3O[C@@H]4CN[C@H]3C4)cc2)nc1 [Example 23, N-[4-[(1S,3R,4S)-2-Oxa-5-azabicyclo[2.2.1]heptan-3-yl]phenyl]-5-(trifluoromethyl)pyrimidin-2-amine]	146 nM	15.7 nM
Clc1ccc(Nc2ccc([C@@H]3O[C@H]4CN[C@@H]3C4)cc2)nc1 [Example 24, 5-Chloro-N-[4-[(1R,3S,4R)-2-oxa-5-azabicyclo[2.2.1]heptan-3-yl]phenyl]pyridin-2-amine]	31.8 nM	3.3 nM
O=C(Nc1ccc([C@H]2O[C@@H]3CN[C@H]2C3)cc1)c1ccnc(C(F)(F)F)c1 [Example 25, N-[4-[(1S,3R,4S)-2-Oxa-5-azabicyclo[2.2.1]heptan-3-yl]phenyl]-2-(trifluoromethyl)pyridine-4-carboxamide]	327 nM	22.4 nM
O=C(Nc1ccc([C@@H]2O[C@H]3CN[C@@H]2C3)cc1)c1ccnc(C(F)(F)F)c1 [Example 26, N-[4-[(1R,3S,4R)-2-Oxa-5-azabicyclo[2.2.1]heptan-3-yl]phenyl]-2-(trifluoromethyl)pyridine-4-carboxamide]	137 nM	22.3 nM
O=C(Nc1ccc([C@@H]2O[C@H]3CN[C@@H]2C3)cc1)c1ccc(OCC(F)(F)F)nc1 [Example 27, N-[4-[(1R,3S,4R)-2-Oxa-5-azabicyclo[2.2.1]heptan-3-yl]phenyl]-6-(2,2,2-trifluoroethoxy)pyridine-3-carboxamide]	41.7 nM	9.7 nM
CCOc1ccc(C(=O)Nc2ccc([C@@H]3O[C@H]4CN[C@@H]3C4)cc2)cc1 [Example 28, 4-Ethoxy-N-[4-[(1R,3S,4R)-2-oxa-5-azabicyclo[2.2.1]heptan-3-yl]phenyl]benzamide]	178 nM	4.3 nM
O=C(Nc1ccc([C@@H]2O[C@H]3CN[C@@H]2C3)cc1)c1cnc(C2CC2)nc1 [Example 29, 2-Cyclopropyl-N-[4-[(1R,3S,4R)-2-oxa-5-azabicyclo[2.2.1]heptan-3-yl]phenyl]pyrimidine-5-carboxamide]	43.8 nM	31.5 nM
FC(F)(F)c1cnc(Nc2ccc([C@@H]3O[C@H]4CN[C@@H]3C4)cc2)cn1 [Example 30, N-[4-[(1R,3S,4R)-2-Oxa-5-azabicyclo[2.2.1]heptan-3-yl]phenyl]-5-(trifluoromethyl)pyrazin-2-amine]	276 nM	29.1 nM
FC(F)(F)c1cnc(Nc2ccc([C@@H]3O[C@H]4CN[C@@H]3C4)cc2)nc1 [Example 31, N-[4-[(1R,3S,4R)-2-Oxa-5-azabicyclo[2.2.1]heptan-3-yl]phenyl]-5-(trifluoromethyl)pyrimidin-2-amine]	77.7 nM	22.1 nM
O=C(Nc1ccc([C@H]2O[C@@H]3CN[C@H]2C3)cc1)c1ccc(OCC2CC2)cc1 [Example 32, 4-(Cyclopropylmethoxy)-N-[4-[(1S,3R,4S)-2-oxa-5-azabicyclo[2.2.1]heptan-3-yl]phenyl]benzamide]	164 nM	6.3 nM
O=C(Nc1ccc(Cl)cc1)Nc1ccc([C@H]2O[C@@H]3CN[C@H]2C3)cc1 [Example 33, 1-(4-Chlorophenyl)-3-[4-[(1S,3R,4S)-2-oxa-5-azabicyclo[2.2.1]heptan-3-yl]phenyl]urea]	11.6 nM	3.5 nM
CCc1ncc(C(=O)Nc2ccc([C@H]3O[C@@H]4CN[C@H]3C4)cc2)cn1 [Example 34, 2-Ethyl-N-[4-[(1S,3R,4S)-2-oxa-5-azabicyclo[2.2.1]heptan-3-yl]phenyl]pyrimidine-5-carboxamide]	457 nM	56.3 nM
FC(F)(F)c1cc(Nc2ccc([C@H]3O[C@@H]4CN[C@H]3C4)cc2)ccn1 [Example 35, N-[4-[(1S,3R,4S)-2-Oxa-5-azabicyclo[2.2.1]heptan-3-yl]phenyl]-2-(trifluoromethyl)pyridin-4-amine]	819 nM	11 nM
